Numbered stars: 1 amine (or outer) side, 2 acyl side, 3 side chain; on linkers, the order of the positions; unused ones are H or OH. Square brackets hold non-standard residues; d marks the D form. Peptide text beside a SMILES is read from it. X1 = CC(c1ccccc1)[C@H](N[*:1])C(=O)[*:2]; Thz(5,5-Me2) = CC1(C)SCN[C@@H]1C(=O)O; dThz(5,5-Me2) = CC1(C)SCN[C@H]1C(=O)O; Gly(cPent) = N[C@H](C(=O)O)C1CCCC1; hPhe = N[C@@H](CCc1ccccc1)C(=O)O; Chg = N[C@H](C(=O)O)C1CCCCC1; Pen = CC(C)(S)[C@H](N)C(=O)O; Nle = CCCC[C@H](N)C(=O)O; Abu = CC[C@H](N)C(=O)O; Sar = CNCC(=O)O
Key:
Rattus norvegicus [1] = assay: In vivo residual angiotensin II like activity in an rat blood pressure assay; format: functional; set-up: concentration or dose not given beside the values
Rattus norvegicus [2] = assay: In vivo angiotensin II like activity determined in rat blood pressure assay measured as increase in BP by 1 ug iv of compound; format: functional
Rattus norvegicus [3] = assay: In vivo antagonistic activity was measured in the rat blood pressure assay; format: functional
Oryctolagus cuniculus [4] = species: Oryctolagus cuniculus; assay: In vitro antagonist activity was measured in rabbit aorta assay as pA2
Rattus norvegicus [5] = assay: (§1) In vivo angiotensin II like activity expressed in rat blood pressure assay measured as increase in BP by 1 ug bolus intravenous injection of compound; format: functional
[6] = target: Type-1 angiotensin II receptor (Oryctolagus cuniculus) (UniProt P34976); assay: In vitro antagonist activity of compound towards angiotensin II like was measured in rabbit aorta assay; settings: target entry is the homologue from another species
[7] = target: Type-1 angiotensin II receptor (Oryctolagus cuniculus) (UniProt P34976); assay: In vitro antagonist activity of compound towards angiotensin II like was measured in a rabbit aorta assay; settings: target entry is the homologue from another species
Oryctolagus cuniculus [8] = species: Oryctolagus cuniculus; assay: pA2 value was evaluated in rabbit aorta assay; format: functional
Oryctolagus cuniculus [9] = species: Oryctolagus cuniculus; assay: In vitro antagonist activity of compound towards angiotensin II like was measured in rabbit aorta assay; format: functional
[10] = target: T1, Type-2 angiotensin II receptor (Rattus norvegicus) (UniProt P35351); assay: as §1; format: functional, organism-based
T1 sequence (whole entry): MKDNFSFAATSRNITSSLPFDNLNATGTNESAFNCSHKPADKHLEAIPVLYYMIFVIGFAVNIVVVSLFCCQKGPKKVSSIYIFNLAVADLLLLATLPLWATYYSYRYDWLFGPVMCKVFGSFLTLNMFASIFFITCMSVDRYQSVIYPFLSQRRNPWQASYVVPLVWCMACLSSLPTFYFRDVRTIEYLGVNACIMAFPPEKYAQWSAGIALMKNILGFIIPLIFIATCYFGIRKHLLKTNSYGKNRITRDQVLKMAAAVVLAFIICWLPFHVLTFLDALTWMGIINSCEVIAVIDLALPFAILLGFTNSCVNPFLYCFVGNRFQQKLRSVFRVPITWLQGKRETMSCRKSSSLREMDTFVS

Rattus norvegicus [11] = assay: In vivo inhibitory activity against Residual angiotensin II in the rat blood pressure; format: functional
Rattus norvegicus [12] = assay: In vivo residual angiotensin II like activity in rat blood pressure assay; format: functional

Type-1 angiotensin II receptor (Oryctolagus cuniculus), sequence (P34976 whole entry, looked up): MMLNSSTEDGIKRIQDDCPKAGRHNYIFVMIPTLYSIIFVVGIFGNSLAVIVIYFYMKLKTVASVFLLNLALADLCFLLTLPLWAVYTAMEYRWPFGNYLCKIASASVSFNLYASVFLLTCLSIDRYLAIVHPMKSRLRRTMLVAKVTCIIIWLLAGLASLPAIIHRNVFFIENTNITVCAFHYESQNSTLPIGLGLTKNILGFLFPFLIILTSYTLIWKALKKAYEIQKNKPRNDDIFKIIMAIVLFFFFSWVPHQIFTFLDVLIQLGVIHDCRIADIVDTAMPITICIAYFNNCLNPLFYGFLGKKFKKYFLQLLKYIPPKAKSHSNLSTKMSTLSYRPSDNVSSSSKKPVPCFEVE

Row | Compound | Activity (Rattus norvegicus [1]) [%] | BP (Rattus norvegicus [2]) [mmHg] | ID50 (Rattus norvegicus [3]) [ng min-1 rat-1] | also measured
1 | H-NRVYAHPF-OH | 3 |  |  | 
2 | CO[C@H](C)[C@H](NC(=O)[C@H](Cc1ccc(O)cc1)NC(=O)[C@@H](NC(=O)[C@H](CCCN=C(N)N)NC(=O)[C@@H](N)CC(N)=O)C(C)C)C(=O)N[C@@H](Cc1c[nH]cn1)C(=O)N1CCC[C@H]1C(=O)N[C@@H](Cc1ccccc1)C(=O)O (H-NRVYT(Me)HPF-OH) | 118 |  |  | 
3 | CC[C@H](C)[C@H](NC(=O)[C@@H]1CCCN1C(=O)[C@H](Cc1c[nH]cn1)NC(=O)[C@H](Cc1c[nH]c2ccccc12)NC(=O)[C@H](Cc1ccc(O)cc1)NC(=O)[C@@H](NC(=O)[C@H](CCCN=C(N)N)NC(=O)CNC)C(C)C)C(=O)O |  | 7.5 | 50 | pA2 (Oryctolagus cuniculus [4]): 7.25
4 | CC[C@H](C)[C@H](NC(=O)[C@@H]1CCCN1C(=O)[C@H](Cc1c[nH]cn1)NC(=O)[C@H](CCc1ccccc1)NC(=O)[C@H](Cc1ccc(O)cc1)NC(=O)[C@@H](NC(=O)[C@H](CCCN=C(N)N)NC(=O)CNC)C(C)C)C(=O)O (H-[Sar]RVY[hPhe]HPI-OH) |  | 10 | 20 | pA2 (Oryctolagus cuniculus [4]): 7.75
5 | H-NRVYRHPF-OH | 0 |  |  | 
6 | CC[C@H](C)[C@H](NC(=O)[C@@H]1CCCN1C(=O)[C@H](Cc1c[nH]cn1)NC(=O)[C@H](CCC(=O)O)NC(=O)[C@H](Cc1ccc(O)cc1)NC(=O)[C@@H](NC(=O)[C@H](CCCN=C(N)N)NC(=O)CNC)C(C)C)C(=O)O |  |  | 100 | BP (Rattus norvegicus [5]): 2 mmHg; pA2 [6]: 9
7 | H-NRVYYHPF-OH | 0 |  |  | 
8 | CC[C@H](NC(=O)[C@H](Cc1ccc(O)cc1)NC(=O)[C@@H](NC(=O)[C@H](CCCN=C(N)N)NC(=O)[C@@H](N)CC(N)=O)C(C)C)C(=O)N[C@@H](Cc1c[nH]cn1)C(=O)N1CCC[C@H]1C(=O)N[C@@H](Cc1ccccc1)C(=O)O (H-NRVY[Abu]HPF-OH) | 16 |  |  | 
9 | CC[C@H](C)[C@H](NC(=O)[C@@H]1CCCN1C(=O)[C@H](Cc1c[nH]cn1)NC(=O)[C@H](C)NC(=O)[C@H](Cc1ccc(O)cc1)NC(=O)[C@@H](NC(=O)[C@H](CCCN=C(N)N)NC(=O)CNC)C(C)C)C(=O)O (H-[Sar]RVYAHPI-OH) |  |  | 50 | BP (Rattus norvegicus [5]): 5 mmHg; pA2 [7]: 7.5
10 | CC[C@H](C)[C@H](NC(=O)[C@@H]1CCCN1C(=O)[C@H](Cc1c[nH]cn1)NC(=O)[C@@H](NC(=O)[C@H](Cc1ccc(O)cc1)NC(=O)[C@@H](NC(=O)[C@H](CCCN=C(N)N)NC(=O)CNC)C(C)C)[C@@H](C)OC)C(=O)O (H-[Sar]RVYT(Me)HPI-OH) |  |  |  | pA2 (Oryctolagus cuniculus [8]): 9.7; BP (Rattus norvegicus [5]): 7.5 mmHg
11 | CC(C)[C@H](NC(=O)[C@H](CCCN=C(N)N)NC(=O)[C@@H](N)CC(N)=O)C(=O)N[C@@H](Cc1ccc(O)cc1)C(=O)N[C@H](C(=O)N[C@@H](Cc1c[nH]cn1)C(=O)N1CCC[C@H]1C(=O)N[C@@H](Cc1ccccc1)C(=O)O)C1CCCCC1 (H-NRVY[Chg]HPF-OH) | 114 |  |  | 
12 | CC(C)[C@H](NC(=O)[C@H](CCCN=C(N)N)NC(=O)[C@@H](N)CC(N)=O)C(=O)N[C@@H](Cc1ccc(O)cc1)C(=O)N[C@H](C(=O)N[C@@H](Cc1c[nH]cn1)C(=O)N1CCC[C@H]1C(=O)N[C@@H](Cc1ccccc1)C(=O)O)C1CCCC1 (H-NRVY[Gly(cPent)]HPF-OH) | 89 |  |  | 
13 | CC[C@H](C)[C@H](NC(=O)[C@@H]1CCCN1C(=O)[C@H](Cc1c[nH]cn1)NC(=O)[C@@H](NC(=O)[C@H](Cc1ccc(O)cc1)NC(=O)[C@@H](NC(=O)[C@H](CCCN=C(N)N)NC(=O)CNC)C(C)C)C(C)c1ccccc1)C(=O)O (some centres not stated) (H-[Sar]RVY[X1]HPI-OH) |  | 10 | 7.5 | pA2 (Oryctolagus cuniculus [4]): 9.3
14 | CC[C@H](C)[C@H](NC(=O)[C@@H]1CCCN1C(=O)[C@H](Cc1c[nH]cn1)NC(=O)[C@H](Cc1c[nH]cn1)NC(=O)[C@H](Cc1ccc(O)cc1)NC(=O)[C@@H](NC(=O)[C@H](CCCN=C(N)N)NC(=O)CNC)C(C)C)C(=O)O |  | 10 | 5 | pA2 (Oryctolagus cuniculus [4]): 9
15 | CC[C@H](C)[C@H](NC(=O)[C@@H]1CCCN1C(=O)[C@H](Cc1c[nH]cn1)NC(=O)[C@H]1N(C(=O)[C@H](Cc2ccc(O)cc2)NC(=O)[C@@H](NC(=O)[C@H](CCCN=C(N)N)NC(=O)CNC)C(C)C)CSC1(C)C)C(=O)O (H-[Sar]RVY[Thz(5,5-Me2)]HPI-OH) |  |  | 25 | BP (Rattus norvegicus [5]): 11.4 mmHg; pA2 [6]: 9
16 | CC[C@H](C)[C@H](NC(=O)[C@@H]1CCCN1C(=O)[C@H](Cc1c[nH]cn1)NC(=O)[C@H](CCCN=C(N)N)NC(=O)[C@H](Cc1ccc(O)cc1)NC(=O)[C@@H](NC(=O)[C@H](CCCN=C(N)N)NC(=O)CNC)C(C)C)C(=O)O (H-[Sar]RVYRHPI-OH) |  | 10 | 15 | pA2 (Oryctolagus cuniculus [4]): 9
17 | CC[C@H](C)[C@H](NC(=O)[C@@H]1CCCN1C(=O)[C@H](Cc1c[nH]cn1)NC(=O)[C@@H](NC(=O)[C@H](Cc1ccc(O)cc1)NC(=O)[C@@H](NC(=O)[C@H](CCCN=C(N)N)NC(=O)CNC)C(C)C)[C@@H](C)CC)C(=O)O |  |  |  | pA2 (Oryctolagus cuniculus [9]): 9.1; BP [10]: 10.2 mmHg; ID50 (Rattus norvegicus [11]): 10 ng min-1 rat-1
18 | H-NRVYVHPF-OH [ANGIOTENSIN AMIDE] |  |  |  | Activity (Rattus norvegicus [12]): 100%
19 | CCCC[C@H](NC(=O)[C@H](Cc1ccc(O)cc1)NC(=O)[C@@H](NC(=O)[C@H](CCCN=C(N)N)NC(=O)CNC)C(C)C)C(=O)N[C@@H](Cc1c[nH]cn1)C(=O)N1CCC[C@H]1C(=O)N[C@H](C(=O)O)[C@@H](C)CC (H-[Sar]RVY[Nle]HPI-OH) |  |  | 20 | BP (Rattus norvegicus [5]): 20 mmHg; pA2 [6]: 8.85
20 | CC[C@H](C)[C@H](NC(=O)[C@@H]1CCCN1C(=O)[C@H](Cc1c[nH]cn1)NC(=O)[C@H](NC(=O)[C@H](Cc1ccc(O)cc1)NC(=O)[C@@H](NC(=O)[C@H](CCCN=C(N)N)NC(=O)CNC)C(C)C)c1ccccc1)C(=O)O |  | 8.5 | 5.5 | pA2 (Oryctolagus cuniculus [4]): 9
21 | CCCC[C@H](NC(=O)[C@H](Cc1ccc(O)cc1)NC(=O)[C@@H](NC(=O)[C@H](CCCN=C(N)N)NC(=O)[C@@H](N)CC(N)=O)C(C)C)C(=O)N[C@@H](Cc1c[nH]cn1)C(=O)N1CCC[C@H]1C(=O)N[C@@H](Cc1ccccc1)C(=O)O (H-NRVY[Nle]HPF-OH) | 21 |  |  | 
22 | CNCC(=O)N[C@@H](CCCN=C(N)N)C(=O)N[C@H](C(=O)N[C@@H](Cc1ccc(O)cc1)C(=O)N1CSC(C)(C)[C@@H]1C(=O)N[C@@H](Cc1c[nH]cn1)C(=O)N1CCC[C@H]1C(=O)N[C@@H](Cc1ccccc1)C(=O)O)C(C)C (H-[Sar]RVY[dThz(5,5-Me2)]HPF-OH) |  | 100 |  | 
23 | CC[C@H](C)[C@H](NC(=O)[C@@H]1CCCN1C(=O)[C@H](Cc1c[nH]cn1)NC(=O)[C@H](Cc1ccc(O)cc1)NC(=O)[C@H](Cc1ccc(O)cc1)NC(=O)[C@@H](NC(=O)[C@H](CCCN=C(N)N)NC(=O)CNC)C(C)C)C(=O)O |  | 2.5 | 50 | pA2 (Oryctolagus cuniculus [4]): 9.6
24 | CC[C@H](C)[C@H](NC(=O)[C@@H]1CCCN1C(=O)[C@H](Cc1c[nH]cn1)NC(=O)[C@@H](NC(=O)[C@H](Cc1ccc(O)cc1)NC(=O)[C@@H](NC(=O)[C@H](CCCN=C(N)N)NC(=O)CNC)C(C)C)C(C)(C)SC)C(=O)O (H-[Sar]RVY[Pen](Me)HPI-OH) |  |  | 20 | BP (Rattus norvegicus [5]): 12.5 mmHg; pA2 [6]: 9
25 | CC[C@H](C)[C@H](NC(=O)[C@@H]1CCCN1C(=O)[C@H](Cc1c[nH]cn1)NC(=O)[C@@H]1CCCN1C(=O)[C@H](Cc1ccc(O)cc1)NC(=O)[C@@H](NC(=O)[C@H](CCCN=C(N)N)NC(=O)CNC)C(C)C)C(=O)O (H-[Sar]RVYPHPI-OH) |  |  |  | pA2 (Oryctolagus cuniculus [9]): 8.7; BP (Rattus norvegicus [5]): 7 mmHg
26 | CNCC(=O)N[C@@H](CCCN=C(N)N)C(=O)N[C@H](C(=O)N[C@@H](Cc1ccc(O)cc1)C(=O)N[C@H](C(=O)N[C@@H](Cc1c[nH]cn1)C(=O)N1CCC[C@H]1C(=O)N[C@@H](Cc1ccccc1)C(=O)O)C(C)(C)SC)C(C)C (H-[Sar]RVY[Pen](Me)HPF-OH) |  | 60 |  | 
27 | H-NRVYLHPF-OH | 25 |  |  | 
28 | H-NRVYPHPF-OH |  |  |  | Activity (Rattus norvegicus [12]): 10%
29 | CC[C@H](C)[C@H](NC(=O)[C@@H]1CCCN1C(=O)[C@H](Cc1c[nH]cn1)NC(=O)[C@H](CCCCN)NC(=O)[C@H](Cc1ccc(O)cc1)NC(=O)[C@@H](NC(=O)[C@H](CCCN=C(N)N)NC(=O)CNC)C(C)C)C(=O)O (H-[Sar]RVYKHPI-OH) |  |  | 50 | BP (Rattus norvegicus [5]): 10 mmHg; pA2 [6]: 8.7
30 | CC[C@H](C)[C@H](NC(=O)[C@@H]1CCCN1C(=O)[C@H](Cc1c[nH]cn1)NC(=O)[C@H](Cc1ccccc1)NC(=O)[C@H](Cc1ccc(O)cc1)NC(=O)[C@@H](NC(=O)[C@H](CCCN=C(N)N)NC(=O)CNC)C(C)C)C(=O)O (H-[Sar]RVYFHPI-OH) |  | 7.5 | 100 | pA2 (Oryctolagus cuniculus [4]): 9.15

— ChEMBL document CHEMBL1124402, “Potent angiotensin II antagonists with non-beta-branched amino acids in position 5” (1989)
